Laboratory results from patent EP4197333A1, “METHOD FOR C[…] RESISTANT PESTS & COMPOUNDS THEREFOR” (Syngenta Crop Protection AG, priority 2021, dated 2023).
In brackets after ≈: the same amount, converted by molar mass.

Tested on: sensitive Plutella strain
Test: Control of sensitive Plutella strain
Type: in vivo
Conditions: 80% control, on average, read-out: concentration controlling the sensitive Plutella strain at 80%

CNC(=O)c1cc(Cl)cc(C)c1NC(=O)c1cc(Br)nn1-c1ncccc1Cl [chlorantraniliprole]
EC80: 0.25 µg/mL (≈ 0.517 µM)
